Square brackets hold non-standard residues; d marks the D form. Peptide text beside a SMILES is read from it.
Legend:
KOR [1] = conditions: after a single injection, result in words; ref [1a]; cited from earlier work
KOR [2] = target: KOR (Mus musculus, UniProt P33534); assay: competition radioligand-binding assay, KOR, [^3H]U69,593, mouse brain membranes

| SMILES | duration of antagonist activity (KOR [1]) | Ki (KOR [2]) [nM] |
| --- | --- | --- |
| NC(N)=Nc1ccc2[nH]c3c(c2c1)C[C@@]1(O)[C@H]2Cc4ccc(O)c5c4[C@@]1(CCN2CC1CC1)[C@H]3O5 [GNTI, 5′-guanidinonaltrindole] | lasting for weeks to more than a month |  |
| O=C1N[C@@H](Cc2ccccc2)C(=O)N2CCC[C@@H]2C(=O)N[C@@H](Cc2ccccc2)C(=O)N[C@H]1Cc1c[nH]c2ccccc12 [L-Trp isomer, cyclo[Phe-D-Pro-Phe-Trp]] (cyclo(FWF[dP])) |  | 21.2 ± 5.6 |
| Oc1ccc2c3c1O[C@H]1c4[nH]c5c(c4C[C@@]4(O)[C@@H](C2)N(CC2CC2)CC[C@]314)C[C@@]1(O)[C@H]2Cc3ccc(O)c4c3[C@@]1(CCN2CC1CC1)[C@H]5O4 [norBNI, norbinaltorphimine] | lasting for weeks to more than a month |  |
| CC(C)[C@@H](CN1CC[C@@](C)(c2cccc(O)c2)[C@@H](C)C1)NC(=O)[C@H]1Cc2ccc(O)cc2CN1 [JDTic, (3R)-7-hydroxy-N-[(1S)-1-[[(3R,4R)-4-(3-hydroxyphenyl)-3,4-dimethyl-1-piperidinyl]methyl]-2-methylpropyl]-1,2,3,4-tetrahydro-3-isoquinolinecarboxamide] | lasting for weeks to more than a month |  |

Reference: publication PMC3411353 (Tetrahedron letters, 2010)
